B1: Recombinant GDNF: recombinant human/mouse glial cell line-derived neurotrophic factor (PeproTech) (protein, UniProt P39905 78-211, looked up)
Glial cell line-derived …: SPDKQMAVLPRRERNRQAAAANPENSRGKGRRGQRGKNRGCVLTAIHLNVTDLGLGYETKEELIFRYCSGSCDAAETTYDKILKNLSRNRRLVSDKVGQACCRPIAFDDDLSFLDDNLVYHILRKHSAKRCGCI

What was measured:
EO-LM2 cells [1] = experiment: Time to LMD progression (HLP score of 0.5) in EO-LM2-engrafted mice, vehicle vs. PLX5622; assay type: in vivo, mouse; conditions: PLX5622 chow 1200 mg kg^−1 from three days prior to engraftment, P=0.0002
Excerpt: (§1) FIG. 11A-Q: Meningeal macrophages promote BCC survival through GDNF/NCAM signaling. a, Volcano plot of differentially expressed genes in EO-LM2 vs. −P cells. b, Ncam1 mean fluorescence intensity (MFI) by flow cytometry. n=3 biological replicates. Two-sided, unpaired Student's t-test. c, Representative intravital microscopy (IVM) and quantification of EO-LM2 vs. −NCAM1KO cells in the LM of mice on day 3 post-engraftment. n=3 mice. Two-sided, unpaired Student's t-test. d, Hindlimb paralysis (HLP) incidence and representative brain section H&E of paired EO-LM2 vs. −NCAM1KO mice euthanized when either reached a clinical endpoint (EP). n=5 mice. […] Arrows=CSFIR+ cells (green). n=3 mice; n=18-43 cells quantified/mouse. […] Arrowheads=tdT+1833 cells. i, Flow cytometry quantification of GDNF expression in cells isolated from meninges of EO-LM2 mice. n=3 biological replicates. […] Two-sided, unpaired Student's t-test. m, Representative 3D IVM images of EO-LM2 cells (red, arrowheads) co-localizing with CSF1R+ cells (green) surrounding LM vessels (white) in veh. vs. PLX5622-treated mice on day 3 or 10 post-engraftment. n, Quantification of EO-LM2 and CSF1R co-localizing (co-loc.) or non-co-localizing (no-coloc.) cells in the LM of mice in (m). n−3 mice. […]

EO-LM2 cells [2] = experiment: Intravital microscopy of EO-LM2 cells in the LM of vehicle vs. PLX5622-treated mice; assay type: in vivo, mouse
Experimental: (§2) PLX5622 (ChemGood) was formulated into AIN-76A rodent chow at 1200 mg kg^−1 by Research Diets Inc. Formulated chow was irradiated prior to administration. CSF1R-GFP (MacGreen) mice were given AIN-76A±PLX5622 for three days prior to engraftment and continued to feed on formulated or control chow for the duration of the study.
Mice were anaesthetized using isoflurane and the cortical bone was exposed following a sagittal incision in the scalp. The head of the mouse was secured using a stereotactic apparatus. A micromotor high-speed drill (Stoelting) with a carbide 0.75-mm drill bit (Stoelting) was used to thin the skull immediately to the left of the sagittal suture and centered between the coronal suture and the lambdoid suture. The skull-thinned region was circular and approximately 1 mm in diameter and the thinning continued until the meningeal vessels were visible under a dissecting microscope and the remaining bone was about 50 μm thin. PBS was used to clean the surgical site and dissipate heat every 15 sec. High-resolution images of the leptomeninges were obtained through the skull thinned window using a Leica SP8 confocal and multiphoton microscope with a 25× water immersion lens. […]
(§3) Intravital and whole mount images were imported into ImageJ for quantification. […] Tissue bordered were then traced and the mean tdT signal was measured over total tissue area.

CSF1R+ cells [3] = experiment: Depletion of CSF1R+ cells in CSF1R-GFP reporter mice fed PLX5622 chow (whole mount and intravital imaging); assay type: in vivo, mouse; conditions: 1200 mg kg^−1 in AIN-76A rodent chow for three days; brain parenchyma and LM
Experimental: FIG. 16A-E: Meningeal macrophages co-localize with EO-LM2 cells and are depleted with the CSF1R inhibitor, PLX5622. a, Confocal intravital microscopy (IVM) of the brain leptomeninges (LM) showing tdTomato+EO-LM2 cells co-localizing with CSF1R+ myeloid cells in the perivascular space of LM vessels (white). Scale bar=[…]. b, Representative whole mount (brain parenchyma) and IVM (LM) images of CSF1R-GFP reporter mice treated with either control or PLX5622 (1200 mg kg^−1) formulated AIN-76A rodent chow for three days. CSF1R+ cells=green. Vessels=white. c, Quantification of the number of CSF1R+ cells per imaging field of view of mice in (b). Three 10× field of view images acquired per mouse. Unpaired, two-sided Student's t-test. n=3 mice per group. ***P=0.0001. ****P<0.0001. s.e.m. d, Dosing Strategy for experiment in FIG. 11k,l. e, Dosing strategy for experiment in FIG. 11m,n.
as §2, with “study. […]” for “study.”
as §3

GDNF = GDNF immunofluorescence on meninges cytospins from EO-LM2-engrafted CSF1R-GFP mice; assay type: in vivo, mouse; conditions: meninges cytospin at endpoint, veh. vs. PLX5622-treated EO-LM2 mice; P=0.0232
Excerpt: The mouse meninges were isolated as described by Louveau et al (Louveau, A., Filiano, A. J. & Kipnis, J. Meningeal whole mount preparation and characterization of neural cells by flow cytometry. Current protocols in immunology 121, e50-e50 (2018)). Briefly, the skull cap was removed and placed in a cold PBS bath under a dissecting microscope. Using fine forceps, the meninges were carefully peeled off the skull. Any remaining meninges on the brain surface were carefully removed with fine forceps while limiting the removal of residual brain parenchyma. The meninges were digested for 45 min at 37° C. in digest buffer (1×HBSS with calcium and magnesium (Corning), 5% FBS, 10 mM HEPES, DNase (Sigma Aldrich, 20 U mL^−1), Liberase DL (Sigma Aldrich, 10 mg mL^−1), Liberase TL (Sigma Aldrich, 10 mg mL^−1)) and lightly shaken every 10 min. The digested solution was then passed through a 70-μm cell strainer and a rubber syringe pump was used to gently push through any undigested tissue. […]
Glass 96-well plates were coated with 100 μL of poly-D-lysine (Sigma Aldrich, 0.1 mg mL^−1) in water at room temperature for 1 h and then washed three times with sterile PBS and allowed to air dry for 15 min in a tissue culture hood. […] ImageJ was used to quantify raw integrated pixel density per cell.

CSF1R+ cells [4] = conditions: systemic (non-CNS) populations; cited from earlier work
1833 cells = experiment: GDNF glucose starvation assay, 1833 cells; assay type: cell-based, human; conditions: glucose free media+1% FBS, GDNF 100 ng mL^−1, 48 h, P=0.0203 vs. vehicle/isotype
Experimental: (§4) 1×10^5 1833 or EO-LM2 cells were seeded in glucose free or complete media+1% FBS in a 12-well plate. The cells were treated with recombinant human/mouse GDNF (PeproTech, 100 ng mL^−1) or vehicle (0.1% BSA in water) and anti-CD49f neutralizing antibody (Invitrogen, 2.5 μg mL^−1) or isotype control. The cells were incubated at 37° C. and 5% CO2 for 24 h (EO-LM2) or 48 h (1833) and then trypsinized and counted with a hemacytometer. The number of live cells in the glucose deprived conditions were then divided by the number of cells in the glucose complete condition to determine the percent of cells alive after glucose deprivation.

EO-LM2 cells [5] = experiment: GDNF glucose starvation assay, EO-LM2 cells; assay type: cell-based, mouse; conditions: glucose free media+1% FBS, GDNF 100 ng mL^−1, 24 h, P=0.0120 vs. vehicle/isotype
Experimental: as §4

EO-LM2 cells [6] = experiment: Intracerebroventricular (ICV) GDNF rescue experiment in tumored, CSF1R-depleted mice; assay type: in vivo, mouse; conditions: intraventricular GDNF vs. veh. ICV in PLX5622-treated tumored mice; P=0.0002
Excerpt: as §1

Molecule | time to LMD progression (time to HLP score of 0.5) (EO-LM2 cells [1]) | initial BCC invasion of the LM (EO-LM2 cells [2]; day 3 post-engraftment, veh. vs. PLX5622) | subsequent BCC expansion within the LM (EO-LM2 cells [2]; day 10 post-engraftment, veh. vs. PLX5622, P<0.0001) | depletion of CSF1R+ cells from the CNS (CSF1R+ cells [3]) | LM cells expressing GDNF (GDNF) | effects on systemic CSF1R+ populations (CSF1R+ cells [4]) | protection from cell death in low glucose conditions (percent live cells after glucose deprivation) (1833 cells) | protection from cell death in low glucose conditions (percent live cells after glucose deprivation) (EO-LM2 cells [5]) | LMD progression (time to HLP score of 0.5) (EO-LM2 cells [6])
COc1ncc(F)cc1CNc1ccc(Cc2c[nH]c3ncc(C)cc23)c(F)n1 [PLX5622] | substantially prolonged | did not affect | did prevent | dramatically depletes | dramatic decrease | modest effects | – | – | –
B1 | – | – | – | – | – | – | marked protection from cell death | marked protection from cell death | accelerated LMD progression

Reference: patent US20250189527A1, “COMPOSITIONS AND METHODS FOR DETECTING, PREDICTING RISK OF DEVELOPING, AND TREATING LEPTOMENINGEAL DISEASE” (Duke University, priority 2022, published 2025)
